Measured values from ChEMBL document CHEMBL5380814, “Targeting Receptor-Interacting Protein Kinase 1 by Novel Benzothiazole Derivatives: Treatment of Acute Lung Injury through the Necroptosis Pathway” (J Med Chem, 2023).
Activity calls are given as the source filed them. The calls are words filed in the database; no cut-off is given here.

Assays:
[1] = biological target: T1, Receptor-interacting serine/threonine-protein kinase 1 (Homo sapiens, UniProt Q13546); test: Binding affinity to human wildtype full length RIPK1 (M1 to K305 residues) expressed in bacterial expression system assessed as dissociation constant by kinome scan kd select based qPCR analysis
T1 sequence (Q13546 whole entry): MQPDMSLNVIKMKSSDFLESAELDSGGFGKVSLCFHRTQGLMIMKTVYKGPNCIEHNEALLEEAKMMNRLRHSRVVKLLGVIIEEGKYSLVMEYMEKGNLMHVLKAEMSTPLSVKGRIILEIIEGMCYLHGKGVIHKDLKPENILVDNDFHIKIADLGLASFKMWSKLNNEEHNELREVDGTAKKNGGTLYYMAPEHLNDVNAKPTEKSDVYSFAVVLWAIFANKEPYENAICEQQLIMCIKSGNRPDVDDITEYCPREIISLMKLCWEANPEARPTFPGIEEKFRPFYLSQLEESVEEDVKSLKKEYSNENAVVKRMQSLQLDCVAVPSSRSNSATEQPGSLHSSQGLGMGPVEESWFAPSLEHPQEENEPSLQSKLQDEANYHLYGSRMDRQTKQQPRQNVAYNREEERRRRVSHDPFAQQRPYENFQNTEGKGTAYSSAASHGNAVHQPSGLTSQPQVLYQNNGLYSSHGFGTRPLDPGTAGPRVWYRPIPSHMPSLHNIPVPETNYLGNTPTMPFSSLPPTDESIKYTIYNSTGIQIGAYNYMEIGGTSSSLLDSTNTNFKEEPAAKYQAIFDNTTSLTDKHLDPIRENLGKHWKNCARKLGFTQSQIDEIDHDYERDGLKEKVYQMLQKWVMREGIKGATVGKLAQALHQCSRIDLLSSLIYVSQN

HT-29 [2] = test: Anti-necroptotic activity in human HT-29 cells assessed as inhibition of human TNFalpha/Smac mimetic/Z-VAD-FMK induced necroptosis preincubated with compound followed by TSZ stimulation for 12 hrs; format: functional, cell-based
HT-29 [3] = test: Cytotoxicity against human HT-29 cells incubated at 100 uM for 16 to 24 hrs measured by cell-titre glo luminescent cell viability assay; format: functional, cell-based; conditions: time 16-24 hrs
HT-29 [4] = test: Anti-necroptotic activity in human HT-29 cells assessed as inhibition of human TNFalpha/Smac mimetic/Z-VAD-FMK induced necroptosis preincubated with compound for 16 to 24 hrs followed by TSZ stimulation for 12 hrs measured by cell-titre glo luminescent cell viability assay; format: functional, cell-based
HT-29 [5] = test: Cytotoxicity against human HT-29 cells incubated for 16 to 24 hrs measured by cell-titre glo luminescent cell viability assay; format: functional; conditions: time 16-24 hrs
[6] = biological target: Receptor-interacting serine/threonine-protein kinase 3 (Homo sapiens, UniProt Q9Y572); test: Binding affinity to human wildtype full length RIPK3 (M1 to Q307 residues) expressed in bacterial expression system assessed as dissociation constant by kinome scan kd select based qPCR analysis
Mus musculus = test: In vivo anti-inflammatory activity in NNK induced induced C57BL/6J ALI mouse model assessed as lung injury score pretreated at 5 mg/kg, ip for 1 hr followed by NNK administration relative to disease model (reference value: 5.7 +/- 0.5); format: functional

Receptor-interacting serine/threonine-protein kinase 3, sequence (Q9Y572 whole entry, the tested form may be a part): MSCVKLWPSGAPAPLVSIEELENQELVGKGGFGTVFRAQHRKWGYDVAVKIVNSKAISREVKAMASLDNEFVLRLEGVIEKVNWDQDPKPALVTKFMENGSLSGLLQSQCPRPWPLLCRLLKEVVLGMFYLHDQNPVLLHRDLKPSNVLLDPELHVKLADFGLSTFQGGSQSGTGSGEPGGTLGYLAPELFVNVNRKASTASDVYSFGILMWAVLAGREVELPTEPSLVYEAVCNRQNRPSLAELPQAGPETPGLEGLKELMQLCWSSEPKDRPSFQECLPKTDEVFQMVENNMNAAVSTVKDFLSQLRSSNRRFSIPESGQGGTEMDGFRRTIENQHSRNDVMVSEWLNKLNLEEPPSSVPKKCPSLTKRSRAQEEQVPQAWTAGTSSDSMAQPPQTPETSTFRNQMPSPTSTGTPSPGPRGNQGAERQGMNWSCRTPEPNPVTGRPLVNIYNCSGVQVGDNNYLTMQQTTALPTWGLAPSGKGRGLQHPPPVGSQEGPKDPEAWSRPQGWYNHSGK

Kd [1] [nM] | Kd [6] [nM] | Structure (SMILES) | Activity (HT-29 [2]) | Activity (HT-29 [3]) | EC50 (HT-29 [4]) [nM] | CC50 (HT-29 [5]) [nM] | EC50 (HT-29 [2]) [nM] | Activity (Mus musculus)
15 | > 10000 | CCOCC(=O)NC1CCC(C(=O)Nc2nc3cc(F)c(Oc4ccc(F)c(NC(=O)Cc5cccc(C(F)(F)F)c5)c4)cc3s2)CC1 (centres undefined) | inactive | Active | 48.4 | > 100000 |  | 
43 | > 10000 | O=C(Cc1cccc(C(F)(F)F)c1)Nc1cc(Oc2cc3sc(NC(=O)C4CCC(NC(=O)CCCl)CC4)nc3cc2F)ccc1F (centres undefined) | inactive | Active | 50 | > 100000 |  | 
 |  | CC(C)CC(=O)NC1CCC(C(=O)Nc2nc3cc(F)c(Oc4ccc(F)c(NC(=O)Cc5cccc(C(F)(F)F)c5)c4)cc3s2)CC1 (centres undefined) | inactive | Active | 47.5 | > 100000 |  | 
15 | > 10000 | COCC(=O)NC1CCC(C(=O)Nc2nc3cc(F)c(Oc4ccc(F)c(NC(=O)Cc5cccc(C(F)(F)F)c5)c4)cc3s2)CC1 (centres undefined) | inactive | Active | 44.8 | > 100000 |  | 
 |  | O=C(Cc1cccc(C(F)(F)F)c1)Nc1cc(Oc2cc3sc(NC(=O)C4CCC(NC(=O)OCc5ccccc5)CC4)nc3cc2F)ccc1F (centres undefined) | inactive | Active | 945 | > 100000 |  | 
 |  | CC(=O)OCC(=O)NC1CCC(C(=O)Nc2nc3cc(F)c(Oc4ccc(F)c(NC(=O)Cc5cccc(C(F)(F)F)c5)c4)cc3s2)CC1 (centres undefined) | inactive | Active | 81.8 | > 100000 |  | 
45 | > 10000 | CCCCC(=O)NC1CCC(C(=O)Nc2nc3cc(F)c(Oc4ccc(F)c(NC(=O)Cc5cccc(C(F)(F)F)c5)c4)cc3s2)CC1 (centres undefined) | inactive | Active | 42.4 | > 100000 |  | 
 |  | O=C1CCC(C(=O)Nc2nc3ccc(Oc4ccc(F)c(NC(=O)Cc5cccc(C(F)(F)F)c5)c4)cc3s2)CC1 |  |  |  | > 50000 | 50 | 
 |  | CCCC1CCC(C2CCC(C(=O)Nc3nc4cc(F)c(Oc5ccc(F)c(NC(=O)Cc6cccc(C(F)(F)F)c6)c5)cc4s3)CC2)CC1 (centres undefined) | inactive | Active | > 10000 | > 100000 |  | 
 |  | O=C(Cc1cccc(C(F)(F)F)c1)Nc1cc(Oc2cc3sc(NC(=O)C4CCC(NC(=O)C5CCCC5)CC4)nc3cc2F)ccc1F (centres undefined) | inactive | Active | 72.9 | > 100000 |  | 
 |  | CCCS(=O)(=O)NC1CCC(C(=O)Nc2nc3cc(F)c(Oc4ccc(F)c(NC(=O)Cc5cccc(C(F)(F)F)c5)c4)cc3s2)CC1 (centres undefined) | inactive | Active | 119 | > 100000 |  | 
 |  | CCC(=O)NC1CCC(C(=O)Nc2nc3cc(F)c(Oc4ccc(F)c(NC(=O)Cc5cccc(C(F)(F)F)c5)c4)cc3s2)CC1 (centres undefined) | inactive | Active | 83.2 | > 100000 |  | 
 |  | O=C(Cc1cccc(C(F)(F)F)c1)Nc1cc(Oc2cc3sc(NC(=O)C4CCC(NC(=O)C5CC5)CC4)nc3cc2F)ccc1F (centres undefined) | inactive | Active | 50.5 | > 100000 |  | 
 |  | C[C@@H]1C[C@H]2[C@@H]3CCC4=CC(=O)C=C[C@]4(C)[C@@]3(F)[C@@H](O)C[C@]2(C)[C@@]1(O)C(=O)CO [DEXAMETHASONE] |  |  |  |  |  | 3.7
 |  | O=C(Cc1cccc(C(F)(F)F)c1)Nc1cc(Oc2cc3sc(NC(=O)C4CCC(O)CC4)nc3cc2F)ccc1F (centres undefined) | inactive | Active | 95.6 | > 100000 |  | 
 |  | N#Cc1c(Oc2ccc(F)c(NC(=O)Cc3cccc(C(F)(F)F)c3)c2)ccc2nc(NC(=O)C3CC3)sc12 |  |  |  | > 50000 |  | 
 |  | CCCC1CCC(C(=O)Nc2nc3cc(F)c(Oc4ccc(F)c(NC(=O)Cc5cccc(C(F)(F)F)c5)c4)cc3s2)CC1 (centres undefined) | inactive | Active | > 10000 | > 100000 |  | 
 |  | CCCC(=O)NC1CCC(C(=O)Nc2nc3cc(F)c(Oc4ccc(F)c(NC(=O)Cc5cccc(C(F)(F)F)c5)c4)cc3s2)CC1 (centres undefined) | inactive | Active | 82.7 | > 100000 |  | 
 |  | O=C(Cc1cccc(C(F)(F)F)c1)Nc1cc(Oc2cc3sc(NC(=O)C4CCC(NS(=O)(=O)c5ccccc5)CC4)nc3cc2F)ccc1F (centres undefined) | inactive | Active | 234 | > 100000 |  | 
 |  | CC(C)(C)OC(=O)NC1CCCC(C(=O)Nc2nc3cc(F)c(Oc4ccc(F)c(NC(=O)Cc5cccc(C(F)(F)F)c5)c4)cc3s2)C1 (centres undefined) | inactive | Active | 334 | > 100000 |  | 
69 | > 10000 | O=C(Cc1cccc(C(F)(F)F)c1)Nc1cc(Oc2cc3sc(NC(=O)C4CCC(NC(=O)c5cccs5)CC4)nc3cc2F)ccc1F (centres undefined) | inactive | Active | 52.9 | > 100000 |  | 
 |  | O=C(Cc1cccc(C(F)(F)F)c1)Nc1cc(Oc2cc3sc(NC(=O)C4CCCC(NC(=O)C5CC5)C4)nc3cc2F)ccc1F (centres undefined) | inactive | Active | 71.2 | > 100000 |  | 
 |  | CC(C)(C)OC(=O)NC1CCC(C(=O)Nc2nc3cc(F)c(Oc4ccc(F)c(NC(=O)Cc5cccc(C(F)(F)F)c5)c4)cc3s2)CC1 (centres undefined) | inactive | Active | 136 | > 100000 |  | 
 |  | O=C(Cc1cccc(C(F)(F)F)c1)Nc1cc(Oc2cc3sc(NC(=O)C4CCC(NC(=O)c5ccc(F)cc5)CC4)nc3cc2F)ccc1F (centres undefined) | inactive | Active | 55.2 | > 100000 |  | 
15 | > 10000 | CC(C)C(=O)NC1CCC(C(=O)Nc2nc3cc(F)c(Oc4ccc(F)c(NC(=O)Cc5cccc(C(F)(F)F)c5)c4)cc3s2)CC1 (centres undefined) | inactive | Active | 34.1 | > 100000 |  | 
